US8192962B2, “Processes for detecting toxic substances” (Daikin Industries, Ltd., priority 2001, dated 2012)

Test system: Mitochondria-located protein genes
Experiment: DNA chip mRNA expression in yeast, mitochondria-located protein genes (Table 2)
Type: cell-based, Saccharomyces cerevisiae S288C
Settings: cells incubated two hours with the chemical substance
Outline: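 S. cerevisiae S288C grown at 25° C in YPD were exposed in log phase for two hours to one toxic chemical at a growth-inhibiting, non-lethal concentration; untreated cells served as control. Poly(A) mRNA was reverse-transcribed with Cy3/Cy5-dUTP and hybridized to a whole-genome yeast DNA chip at 65° C for over 12 hours; values are fluorescence ratios versus untreated.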

## N#Cc1c(Cl)c(Cl)c(Cl)c(C#N)c1Cl [(9), 2,4,5,6-tetrachloro-1,3-benzenedicarbonitrile]
Yeast gene YJR121W
  The level of expressed mRNA in the presence of chemical substance/The level of expressed mRNA in the absence of chemical substance: 0.8
Yeast gene YKL003C
  The level of expressed mRNA in the presence of chemical substance/The level of expressed mRNA in the absence of chemical substance: 1.5
Yeast gene YKL016C
  The level of expressed mRNA in the presence of chemical substance/The level of expressed mRNA in the absence of chemical substance: 1.3
Yeast gene YKL141W
  The level of expressed mRNA in the presence of chemical substance/The level of expressed mRNA in the absence of chemical substance: 0.8
Yeast gene YKL142W
  The level of expressed mRNA in the presence of chemical substance/The level of expressed mRNA in the absence of chemical substance: 5.8
Yeast gene YKL148C
  The level of expressed mRNA in the presence of chemical substance/The level of expressed mRNA in the absence of chemical substance: 1.7
Yeast gene YKL170W
  The level of expressed mRNA in the presence of chemical substance/The level of expressed mRNA in the absence of chemical substance: 0.9
Yeast gene YKL194C
  The level of expressed mRNA in the presence of chemical substance/The level of expressed mRNA in the absence of chemical substance: 1.3
Yeast gene YKR066C
  The level of expressed mRNA in the presence of chemical substance/The level of expressed mRNA in the absence of chemical substance: 0.7
Yeast gene YLL041C
  The level of expressed mRNA in the presence of chemical substance/The level of expressed mRNA in the absence of chemical substance: 0.7
Yeast gene YLR038C
  The level of expressed mRNA in the presence of chemical substance/The level of expressed mRNA in the absence of chemical substance: 0.4
Yeast gene YLR259C
  The level of expressed mRNA in the presence of chemical substance/The level of expressed mRNA in the absence of chemical substance: 1.8
Yeast gene YLR295C
  The level of expressed mRNA in the presence of chemical substance/The level of expressed mRNA in the absence of chemical substance: 1.4
Yeast gene YLR304C
  The level of expressed mRNA in the presence of chemical substance/The level of expressed mRNA in the absence of chemical substance: 0.1
Yeast gene YLR348C
  The level of expressed mRNA in the presence of chemical substance/The level of expressed mRNA in the absence of chemical substance: 2.1
Yeast gene YLR395C
  The level of expressed mRNA in the presence of chemical substance/The level of expressed mRNA in the absence of chemical substance: 1.0
Yeast gene YML054C
  The level of expressed mRNA in the presence of chemical substance/The level of expressed mRNA in the absence of chemical substance: 4.1
Yeast gene YML120C
  The level of expressed mRNA in the presence of chemical substance/The level of expressed mRNA in the absence of chemical substance: 1.3
Yeast gene YML129C
  The level of expressed mRNA in the presence of chemical substance/The level of expressed mRNA in the absence of chemical substance: 1.4
Yeast gene YMR023C
  The level of expressed mRNA in the presence of chemical substance/The level of expressed mRNA in the absence of chemical substance: 1.5
Yeast gene YMR035W
  The level of expressed mRNA in the presence of chemical substance/The level of expressed mRNA in the absence of chemical substance: 1.7
Yeast gene YMR083W
  The level of expressed mRNA in the presence of chemical substance/The level of expressed mRNA in the absence of chemical substance: 0.4
Yeast gene YMR089C
  The level of expressed mRNA in the presence of chemical substance/The level of expressed mRNA in the absence of chemical substance: 5.6
Yeast gene YMR152W
  The level of expressed mRNA in the presence of chemical substance/The level of expressed mRNA in the absence of chemical substance: 2.7
Yeast gene YMR203W
  The level of expressed mRNA in the presence of chemical substance/The level of expressed mRNA in the absence of chemical substance: 0.7
Yeast gene YMR267W
  The level of expressed mRNA in the presence of chemical substance/The level of expressed mRNA in the absence of chemical substance: 0.4
Yeast gene YNL055C
  The level of expressed mRNA in the presence of chemical substance/The level of expressed mRNA in the absence of chemical substance: 1.1
Yeast gene YNL071W
  The level of expressed mRNA in the presence of chemical substance/The level of expressed mRNA in the absence of chemical substance: 1.1
Yeast gene YNL073W
  The level of expressed mRNA in the presence of chemical substance/The level of expressed mRNA in the absence of chemical substance: 0.9
Yeast gene YNL104C
  The level of expressed mRNA in the presence of chemical substance/The level of expressed mRNA in the absence of chemical substance: 1.1
Yeast gene YNL256W
  The level of expressed mRNA in the presence of chemical substance/The level of expressed mRNA in the absence of chemical substance: 0.8
Yeast gene YOL096C
  The level of expressed mRNA in the presence of chemical substance/The level of expressed mRNA in the absence of chemical substance: 1.3
Yeast gene YOR020C
  The level of expressed mRNA in the presence of chemical substance/The level of expressed mRNA in the absence of chemical substance: 5.8
Yeast gene YOR037W
  The level of expressed mRNA in the presence of chemical substance/The level of expressed mRNA in the absence of chemical substance: 1.3
Yeast gene YOR100C
  The level of expressed mRNA in the presence of chemical substance/The level of expressed mRNA in the absence of chemical substance: 2.0
Yeast gene YOR130C
  The level of expressed mRNA in the presence of chemical substance/The level of expressed mRNA in the absence of chemical substance: 2.0
Yeast gene YOR142W
  The level of expressed mRNA in the presence of chemical substance/The level of expressed mRNA in the absence of chemical substance: 1.1
Yeast gene YOR150W
  The level of expressed mRNA in the presence of chemical substance/The level of expressed mRNA in the absence of chemical substance: 0.8
Yeast gene YOR176W
  The level of expressed mRNA in the presence of chemical substance/The level of expressed mRNA in the absence of chemical substance: 1.0
Yeast gene YOR187W
  The level of expressed mRNA in the presence of chemical substance/The level of expressed mRNA in the absence of chemical substance: 0.6
Yeast gene YOR316C
  The level of expressed mRNA in the presence of chemical substance/The level of expressed mRNA in the absence of chemical substance: 1.6
Yeast gene YPL040C
  The level of expressed mRNA in the presence of chemical substance/The level of expressed mRNA in the absence of chemical substance: 0.2
Yeast gene YPL134C
  The level of expressed mRNA in the presence of chemical substance/The level of expressed mRNA in the absence of chemical substance: 0.6
Yeast gene YPL135W
  The level of expressed mRNA in the presence of chemical substance/The level of expressed mRNA in the absence of chemical substance: 0.5
Yeast gene YPL215W
  The level of expressed mRNA in the presence of chemical substance/The level of expressed mRNA in the absence of chemical substance: 1.7
Yeast gene YPL262W
  The level of expressed mRNA in the presence of chemical substance/The level of expressed mRNA in the absence of chemical substance: 1.4
Yeast gene YPR024W
  The level of expressed mRNA in the presence of chemical substance/The level of expressed mRNA in the absence of chemical substance: 3.0
Yeast gene YPR037C
  The level of expressed mRNA in the presence of chemical substance/The level of expressed mRNA in the absence of chemical substance: 1.5
Yeast gene YPR047W
  The level of expressed mRNA in the presence of chemical substance/The level of expressed mRNA in the absence of chemical substance: 2.1
Yeast gene YPR134W
  The level of expressed mRNA in the presence of chemical substance/The level of expressed mRNA in the absence of chemical substance: 1.8
